In paper PMC5218480 (PLoS ONE, 2017):

Test system: MV-4-11 cells
Experiment: Gene expression microarray analysis (Affymetrix PrimeView) and GSEA
Format: cell-based, human
Design: RFU PODN (11730768_x_at) / Fold change /veh PODN (11730768_x_at) / RFU LINC00158 (11744669_a_at) / Fold change /veh LINC00158 (11744669_a_at) / RFU DUSP10 (11751237_a_at) / Fold change /veh DUSP10 (11751237_a_at) / RFU ID3 (11757404_x_at) / Fold change /veh ID3 (11757404_x_at) / RFU PLEKHG5 (11737974_s_at) / Fold change /veh PLEKHG5 (11737974_s_at) / RFU LRRC4B (11730491_at) / Fold change /veh LRRC4B (11730491_at) / RFU GIMAP4 (11747438_a_at) / Fold change /veh GIMAP4 (11747438_a_at) / RFU KRT8 (11758183_x_at) / Fold change /veh KRT8 (11758183_x_at) / RFU CNN1 (11734310_a_at) / Fold change /veh CNN1 (11734310_a_at) / RFU VPS37D (11726825_at) / Fold change /veh VPS37D (11726825_at) / RFU C10orf10 (11716522_x_at) / Fold change /veh C10orf10 (11716522_x_at) / RFU KIR2DL2 /// KIR2DL4 /// KIR2DL5A /// KIR2DL5B /// KIR2DS1 /// KIR2DS2 /// KIR2DS3 /// KIR2DS4 /// KIR3DL3 /// KIR3DL3 /// KIR3DS1 (11738374_at) / Fold change /veh KIR2DL2 /// KIR2DL4 /// KIR2DL5A /// KIR2DL5B /// KIR2DS1 /// KIR2DS2 /// KIR2DS3 /// KIR2DS4 /// KIR3DL3 /// KIR3DL3 /// KIR3DS1 (11738374_at) / RFU C1QL1 (11718748_at) / Fold change /veh C1QL1 (11718748_at) / RFU TMPRSS4 (11747572_a_at) / Fold change /veh TMPRSS4 (11747572_a_at) / RFU HAMP (11756126_x_at) / Fold change /veh HAMP (11756126_x_at) / RFU RNFT2 (11725882_a_at) / Fold change /veh RNFT2 (11725882_a_at) / RFU NR4A2 (11747474_a_at) / Fold change /veh NR4A2 (11747474_a_at) / RFU ABCC12 (11746883_a_at) / Fold change /veh ABCC12 (11746883_a_at) / RFU TMEM136 (11760407_x_at) / Fold change /veh TMEM136 (11760407_x_at) / RFU CLDN22 /// WWC2 (11732394_at) / Fold change /veh CLDN22 /// WWC2 (11732394_at) / RFU HLA-DPB1 (11760878_x_at) / Fold change /veh HLA-DPB1 (11760878_x_at) / RFU SPINT1 (11716480_a_at) / Fold change /veh SPINT1 (11716480_a_at) / RFU GAP43 (11754022_s_at) / Fold change /veh GAP43 (11754022_s_at) / RFU A4GNT (11735810_at) / Fold change /veh A4GNT (11735810_at) / RFU PRB3 (11715151_x_at) / Fold change /veh PRB3 (11715151_x_at) / RFU TUBB4B (11761932_at) / Fold change /veh TUBB4B (11761932_at) / RFU CAPN14 (11732068_a_at) / Fold change /veh CAPN14 (11732068_a_at) / RFU TMCC2 (11721928_a_at) / Fold change /veh TMCC2 (11721928_a_at) / RFU IRGQ (11745062_a_at) / Fold change /veh IRGQ (11745062_a_at) / RFU FAM174B (11720279_a_at) / Fold change /veh FAM174B (11720279_a_at) / RFU TMPRSS4 (11748680_a_at) / Fold change /veh TMPRSS4 (11748680_a_at) / RFU FAM212B (11763350_a_at) / Fold change /veh FAM212B (11763350_a_at) / RFU PLEKHG5 (11743358_a_at) / Fold change /veh PLEKHG5 (11743358_a_at) / RFU ZSCAN30 (11745921_a_at) / Fold change /veh ZSCAN30 (11745921_a_at) / RFU CMKLR1 (11741424_a_at) / Fold change /veh CMKLR1 (11741424_a_at) / RFU LOC101060620 /// MAPK8IP1 (11723275_at) / Fold change /veh LOC101060620 /// MAPK8IP1 (11723275_at) / RFU SPTSSB (11747773_x_at) / Fold change /veh SPTSSB (11747773_x_at) / RFU PRSS12 (11739890_at) / Fold change /veh PRSS12 (11739890_at) / RFU BIN1 (11741810_x_at) / Fold change /veh BIN1 (11741810_x_at) / RFU WNT11 (11732464_a_at) / Fold change /veh WNT11 (11732464_a_at) / RFU C10orf10 (11716521_a_at) / Fold change /veh C10orf10 (11716521_a_at) / RFU C5orf56 (11738089_at) / Fold change /veh C5orf56 (11738089_at) / RFU CYB561 (11721691_x_at) / Fold change /veh CYB561 (11721691_x_at) / RFU ANKRD19P (11752326_a_at) / Fold change /veh ANKRD19P (11752326_a_at) / RFU OR2T12 /// OR2T33 /// OR2T8 (11738714_s_at) / Fold change /veh OR2T12 /// OR2T33 /// OR2T8 (11738714_s_at) / RFU VCAN (11748164_a_at) / Fold change /veh VCAN (11748164_a_at) / RFU JSRP1 (11732532_at) / Fold change /veh JSRP1 (11732532_at) / RFU KRTAP10-11 (11738290_x_at) / Fold change /veh KRTAP10-11 (11738290_x_at) / RFU MYO3A (11730013_a_at) / Fold change /veh MYO3A (11730013_a_at) / RFU EBF3 (11725865_a_at) / Fold change /veh EBF3 (11725865_a_at) / RFU CAMK2N1 (11719241_x_at) / Fold change /veh CAMK2N1 (11719241_x_at) / RFU C5orf56 (11738088_a_at) / Fold change /veh C5orf56 (11738088_a_at) / RFU OLFML3 (11715873_a_at) / Fold change /veh OLFML3 (11715873_a_at) / RFU LOC100653217 /// NTM (11731650_a_at) / Fold change /veh LOC100653217 /// NTM (11731650_a_at) / RFU MAPK11 (11762145_a_at) / Fold change /veh MAPK11 (11762145_a_at) / RFU FIZ1 (11724087_x_at) / Fold change /veh FIZ1 (11724087_x_at) / RFU OASL (11726364_x_at) / Fold change /veh OASL (11726364_x_at) / RFU SOX15 (11748057_x_at) / Fold change /veh SOX15 (11748057_x_at) / RFU CD79A (11719716_a_at) / Fold change /veh CD79A (11719716_a_at) / RFU HIST1H1D (11736915_at) / Fold change /veh HIST1H1D (11736915_at) / RFU CASKIN2 (11723855_a_at) / Fold change /veh CASKIN2 (11723855_a_at) / RFU LOC730098 (11760151_x_at) / Fold change /veh LOC730098 (11760151_x_at) / RFU OR4N2 (11742367_at) / Fold change /veh OR4N2 (11742367_at) / RFU PRRT2 (11749266_a_at) / Fold change /veh PRRT2 (11749266_a_at) / RFU SNX32 (11753110_a_at) / Fold change /veh SNX32 (11753110_a_at) / RFU CDHR5 (11726645_a_at) / Fold change /veh CDHR5 (11726645_a_at) / RFU RCAN1 (11760418_a_at) / Fold change /veh RCAN1 (11760418_a_at) / RFU FAM167A (11723789_a_at) / Fold change /veh FAM167A (11723789_a_at) / RFU FAM26E (11764081_at) / Fold change /veh FAM26E (11764081_at) / RFU ISYNA1 (11749810_s_at) / Fold change /veh ISYNA1 (11749810_s_at) / RFU ACY1 (11761880_at) / Fold change /veh ACY1 (11761880_at) / RFU 11764098_at / Fold change /veh 11764098_at / RFU SAMD14 (11745864_x_at) / Fold change /veh SAMD14 (11745864_x_at) / RFU NPB (11741838_a_at) / Fold change /veh NPB (11741838_a_at) / RFU TMPRSS6 (11731388_a_at) / Fold change /veh TMPRSS6 (11731388_a_at) / RFU KRTAP10-2 (11738614_at) / Fold change /veh KRTAP10-2 (11738614_at) / RFU ARHGAP8 /// PRR5-ARHGAP8 (11727945_x_at) / Fold change /veh ARHGAP8 /// PRR5-ARHGAP8 (11727945_x_at) / RFU KRTAP5-7 /// NADSYN1 (11734609_at) / Fold change /veh KRTAP5-7 /// NADSYN1 (11734609_at) / RFU RASL12 (11751679_a_at) / Fold change /veh RASL12 (11751679_a_at) / RFU CDKN2B (11736163_a_at) / Fold change /veh CDKN2B (11736163_a_at) / RFU PRF1 (11729649_at) / Fold change /veh PRF1 (11729649_at) / RFU, ZNF638 /// ZNF638-IT1 / Fold change vs veh, ZNF638 /// ZNF638-IT1 / RFU, PANK3 / Fold change vs veh, PANK3 / RFU, SH3YL1 / Fold change vs veh, SH3YL1 / RFU, ZEB2 / Fold change vs veh, ZEB2 / RFU, NRIP1 / Fold change vs veh, NRIP1 / RFU, PTTG1IP / Fold change vs veh, PTTG1IP / RFU, CAPN2 / Fold change vs veh, CAPN2 / RFU, MED14 / Fold change vs veh, MED14 / RFU, SNORA58 / Fold change vs veh, SNORA58 / RFU, C1orf63 / Fold change vs veh, C1orf63 / RFU, LRRFIP1 / Fold change vs veh, LRRFIP1 / RFU, NDUFAF7 / Fold change vs veh, NDUFAF7 / RFU, SLC12A2 / Fold change vs veh, SLC12A2 / RFU, IBTK / Fold change vs veh, IBTK / RFU, ESF1 / Fold change vs veh, ESF1 / Fold change vs veh, TMEM50B / RFU, TAOK1 / Fold change vs veh, TAOK1 / RFU, ACBD3 / Fold change vs veh, ACBD3 / RFU, TMA16 / Fold change vs veh, TMA16 / RFU, RWDD3 / Fold change vs veh, RWDD3 / RFU, BCAT1 / Fold change vs veh, BCAT1 / RFU, EDEM3 / Fold change vs veh, EDEM3 / RFU, TMEM33 / Fold change vs veh, TMEM33 / RFU, WDR75 / Fold change vs veh, WDR75 / RFU, AHCTF1 / Fold change vs veh, AHCTF1 / RFU, TFRC / Fold change vs veh, TFRC / RFU, ZDHHC17 / Fold change vs veh, ZDHHC17 / RFU, NOM1 / Fold change vs veh, NOM1 / RFU, ARL8B / Fold change vs veh, ARL8B / RFU, ZBTB11 / Fold change vs veh, ZBTB11 / RFU, TAMM41 / Fold change vs veh, TAMM41 / RFU, KIAA1704 /// LOC100996395 / Fold change vs veh, KIAA1704 /// LOC100996395 / RFU, ING1 / Fold change vs veh, ING1 / RFU, TRMT61B / Fold change vs veh, TRMT61B / RFU, FUBP3 / Fold change vs veh, FUBP3 / RFU, TP53 / Fold change vs veh, TP53 / RFU, TNKS2 / Fold change vs veh, TNKS2 / RFU, ZFP14 / Fold change vs veh, ZFP14 / RFU, ACTR2 / Fold change vs veh, ACTR2 / RFU, PPP3R1 / Fold change vs veh, PPP3R1 / RFU, PIK3R1 / Fold change vs veh, PIK3R1 / RFU, HNRNPA1 / Fold change vs veh, HNRNPA1 / RFU, RNF170 / Fold change vs veh, RNF170 / RFU, ZNF28 / Fold change vs veh, ZNF28 / RFU, RNGTT / Fold change vs veh, RNGTT / RFU, OGT / Fold change vs veh, OGT / RFU, BRD1 / Fold change vs veh, BRD1 / RFU, MARS / Fold change vs veh, MARS / RFU, ZNF655 / Fold change vs veh, ZNF655 / RFU, FAHD1 / Fold change vs veh, FAHD1 / RFU, BDP1 / Fold change vs veh, BDP1 / RFU, LRRCC1 / Fold change vs veh, LRRCC1 / RFU, ARID1A / Fold change vs veh, ARID1A / RFU, ZNF146 / Fold change vs veh, ZNF146 / RFU, ZNF330 / Fold change vs veh, ZNF330 / RFU, GPN3 / Fold change vs veh, GPN3 / RFU, C9orf123 / Fold change vs veh, C9orf123 / RFU, N4BP2L2 / Fold change vs veh, N4BP2L2 / RFU, ARFIP1 / Fold change vs veh, ARFIP1 / RFU, FAM179B / Fold change vs veh, FAM179B / RFU, BCL10 / Fold change vs veh, BCL10 / RFU, UHRF1BP1L / Fold change vs veh, UHRF1BP1L / RFU, BET1 / Fold change vs veh, BET1 / RFU, CNOT2 / Fold change vs veh, CNOT2 / RFU, ZNF268 / Fold change vs veh, ZNF268 / Fold change vs veh, ZNF507 / RFU, DGCR2 / Fold change vs veh, DGCR2 / RFU, WDSUB1 / Fold change vs veh, WDSUB1 / Fold change vs veh, HSP90B1 /// MIR3652 / RFU, ADSS / Fold change vs veh, ADSS / RFU, GK / Fold change vs veh, GK / RFU, ZNF148 / Fold change vs veh, ZNF148 / RFU, TAF9 / Fold change vs veh, TAF9 / RFU, SLC1A5 / Fold change vs veh, SLC1A5 / RFU, SLMO2 / Fold change vs veh, SLMO2 / RFU, ABCC4 / Fold change vs veh, ABCC4 / RFU, LOC101060439 /// RAP1B / Fold change vs veh, LOC101060439 /// RAP1B / RFU, RFX7 / Fold change vs veh, RFX7 / RFU, GTPBP10 / Fold change vs veh, GTPBP10 / RFU, CNEP1R1 / Fold change vs veh, CNEP1R1 / RFU, BIVM-ERCC5 /// ERCC5 / Fold change vs veh, BIVM-ERCC5 /// ERCC5 / RFU, ILF3 / Fold change vs veh, ILF3 / RFU 11762660_at / Fold change /veh 11762660_at / RFU VCAN (11757783_s_at) / Fold change /veh VCAN (11757783_s_at) / RFU DDX43 (11728927_at) / Fold change /veh DDX43 (11728927_at) / RFU KRT8 (11758188_x_at) / Fold change /veh KRT8 (11758188_x_at) / RFU NKD1 (11759106_at) / Fold change /veh NKD1 (11759106_at) / RFU SRD5A1 (11742802_a_at) / Fold change /veh SRD5A1 (11742802_a_at) / RFU TPSAB1 /// TPSB2 (11721975_s_at) / Fold change /veh TPSAB1 /// TPSB2 (11721975_s_at) / RFU GSTM3 (11746129_a_at) / Fold change /veh GSTM3 (11746129_a_at) / RFU IL23R (11737362_x_at) / Fold change /veh IL23R (11737362_x_at) / RFU TMEM51 (11727254_a_at) / Fold change /veh TMEM51 (11727254_a_at) / RFU PIWIL2 (11732686_x_at) / Fold change /veh PIWIL2 (11732686_x_at) / RFU ORM1 (11744905_x_at) / Fold change /veh ORM1 (11744905_x_at) / RFU CCDC152 (11743942_at) / Fold change /veh CCDC152 (11743942_at) / RFU ECM1 (11717891_a_at) / Fold change /veh ECM1 (11717891_a_at) / RFU IL23R (11748794_a_at) / Fold change /veh IL23R (11748794_a_at) / RFU TNFAIP8L3 (11732012_x_at) / Fold change /veh TNFAIP8L3 (11732012_x_at) / RFU MBOAT4 (11741988_at) / Fold change /veh MBOAT4 (11741988_at) / RFU 11764193_at / Fold change /veh 11764193_at / RFU TMEM53 (11763286_at) / Fold change /veh TMEM53 (11763286_at) / RFU MAGEB2 (11727129_at) / Fold change /veh MAGEB2 (11727129_at) / RFU TMEM200A (11744735_a_at) / Fold change /veh TMEM200A (11744735_a_at) / RFU CCDC152 (11751479_a_at) / Fold change /veh CCDC152 (11751479_a_at) / RFU FAM211A (11726209_a_at) / Fold change /veh FAM211A (11726209_a_at) / RFU RGS16 (11746705_a_at) / Fold change /veh RGS16 (11746705_a_at) / RFU VCAN (11755009_s_at) / Fold change /veh VCAN (11755009_s_at) / RFU RHOB (11743442_s_at) / Fold change /veh RHOB (11743442_s_at) / RFU RGS16 (11720943_a_at) / Fold change /veh RGS16 (11720943_a_at) / RFU RGS16 (11720944_at) / Fold change /veh RGS16 (11720944_at) / RFU, VPS4B / Fold change vs veh, VPS4B / RFU, CREB1 / Fold change vs veh, CREB1 / RFU, DNAJC13 / Fold change vs veh, DNAJC13 / RFU, GNAQ / Fold change vs veh, GNAQ / RFU, CDK5R1 / Fold change vs veh, CDK5R1 / RFU, ZRANB3 / Fold change vs veh, ZRANB3 / RFU, CUL4A / Fold change vs veh, CUL4A / RFU, CCNY / Fold change vs veh, CCNY / RFU, UFL1 / Fold change vs veh, UFL1 / RFU, COG3 / Fold change vs veh, COG3 / RFU, DIAPH2 / Fold change vs veh, DIAPH2 / RFU, SKA2 / Fold change vs veh, SKA2 / RFU, AFF3 / Fold change vs veh, AFF3 / RFU, LMF1 / Fold change vs veh, LMF1 / RFU, IPO11 / Fold change vs veh, IPO11 / RFU, DFFB / Fold change vs veh, DFFB / RFU, FOXP1 / Fold change vs veh, FOXP1 / RFU, CARD8 / Fold change vs veh, CARD8 / RFU, STRN3 / Fold change vs veh, STRN3 / RFU, ADK / Fold change vs veh, ADK / RFU, RASSF2 / Fold change vs veh, RASSF2 / RFU, WIPF1 / Fold change vs veh, WIPF1 / RFU, LARP1B / Fold change vs veh, LARP1B / RFU, RASA1 / Fold change vs veh, RASA1 / RFU, RB1 / Fold change vs veh, RB1 / RFU, PPFIA1 / Fold change vs veh, PPFIA1 / RFU, MAT2A / Fold change vs veh, MAT2A / RFU, CCT5 / Fold change vs veh, CCT5 / RFU, WDR92 / Fold change vs veh, WDR92 / RFU, CUX1 / Fold change vs veh, CUX1 / RFU, TTC7A / Fold change vs veh, TTC7A / RFU, TMEM135 / Fold change vs veh, TMEM135 / RFU, DEPTOR / Fold change vs veh, DEPTOR / RFU, CPM / Fold change vs veh, CPM / RFU, DNAJB6 / Fold change vs veh, DNAJB6 / RFU, CACNA2D3 / Fold change vs veh, CACNA2D3 / RFU, DTX4 / Fold change vs veh, DTX4 / RFU, TFCP2 / Fold change vs veh, TFCP2 / RFU, GMCL1 /// GMCL1P1 / Fold change vs veh, GMCL1 /// GMCL1P1 / RFU, AEBP2 / Fold change vs veh, AEBP2 / RFU, SNHG1 /// SNORD22 /// SNORD25 /// SNORD26 /// SNORD27 /// SNORD28 /// SNORD29 /// SNORD31 / Fold change vs veh, SNHG1 /// SNORD22 /// SNORD25 /// SNORD26 /// SNORD27 /// SNORD28 /// SNORD29 /// SNORD31 / Fold change (Aza/veh), C12orf56 (ProbeSet 11735607_a_at) / Fold change (ACY-1035/veh), C12orf56 (ProbeSet 11735607_a_at) / Fold change (Aza/veh), FGFR1OP (ProbeSet 11751329_s_at) / Fold change (ACY-1035/veh), FGFR1OP (ProbeSet 11751329_s_at) / Fold change (Aza/veh), VPS36 (ProbeSet 11739960_a_at) / Fold change (ACY-1035/veh), VPS36 (ProbeSet 11739960_a_at) / RFU SYPL1 (11715823_x_at) / Fold change /veh SYPL1 (11715823_x_at) / RFU IGFBP7 (11715501_s_at) / Fold change /veh IGFBP7 (11715501_s_at) / RFU REEP3 (11722064_at) / Fold change /veh REEP3 (11722064_at) / RFU IGLL1 (11728026_x_at) / Fold change /veh IGLL1 (11728026_x_at): dose or concentration left out as unconfirmed
Settings: ProbeSet 11740528_a_at; LIST D

`Nc1ccc(-c2cccs2)cc1NC(=O)c1ccc2c(c1)cc(C1CC1)n2CCN1CCOCC1` [ACY-1035] was tested, and the “RFU, AFF3” value was 703.28 RFU.
